Results taken from patent US20240108702A1, “Use Of Naturally Occurring Cyclic Peptides For Treatment Of SARS-COV-2 Infection” (The University of Southern California, priority 2021, published 2024).
pIC50: −log10 of the molar value. Where two headings read alike, the source gives them in different places. Where a SMILES comes first, the peptide text is derived from it. Bridges are numbered along the chain shown (N, C = ends).

What was measured:
in vivo [1] = settings: both, Sprague-Dawley, rat, iv
[2] = Mouse model of LPS-induced acute lung injury (ALI), subcutaneous injection; settings: in vivo, sc
TMPRSS2 [3] = target: T1, TMPRSS2 (Homo sapiens, UniProt O15393); assay: Cellular TMPRSS2 inhibition assay in Caco-2 cells; assay type: cell-based; set-up: using Caco-2 and Calu3 cells, both of which express surface TMPRSS2; endogenous in cells; host or cells: Caco-2 cells
Description: Caco-2 cells (1×10^5 per well) were incubated in 96 well plates with 0 to 50 μg/ml of the indicated peptide in the presence of a TMPRSS2 substrate (Boc-Leu-Gly-Arg-AMC) in 50 mM Tris-HCl, pH 7.4. Substrate conversion was monitored in a fluorescence plate reader for 2 hours and inhibition of enzyme activity was expressed relative to a solvent control.
(§1) TMPRSS2 inhibition assays. Peptides (0-50 μg/ml) were tested for their inhibitory activities against TMPRSS2 in cellular assays using Vero E6 cells, Caco-2 cells, or Calu-3 cells using standard conditions. TMPRSS2 activity was assayed in real time for 120 min by monitoring the cleavage of the TMPRSS2 substrate, Boc-Leu-Gly-Arg-AMC. Following the 2 h enzyme assay, cells were evaluated for viability using the CellTiter-Glo cellular toxicity assay.

[4] = Interspecies allometric scaling to predict human PK and human equivalent dose
Description: Interspecies allometric scaling: Single-dose PK data from mice, rats, cynomolgus monkeys, and a vervet was used to predict human PK parameters using simple allometry. The relationship between CL or Vss obtained from the NCA, and the body weight was described using the following equation: Y=a·BW^b, where Y is the PK parameter (e.g., CL or Vss), BW is the bodyweight of the species, a is an allometric coefficient, and b is an allometric exponent. Linear regression was performed on log-transformed data. The predicted human equivalent dose was calculated based on the allometrically scaled clearance using the following equation: Dose=CL*AUC0-∞. The corresponding average AUCτ and AUC0-∞ at NOAEL and LOAEL, respectively, were used to convert the doses at NOAEL and LOAEL in preclinical animals to HED.

in vivo [5] = settings: both, cynomolgus monkey, iv
in vivo [6] = settings: both, cynomolgus monkey, iv; remark: listed apart in the source
TMPRSS2 [7] = target: T1, TMPRSS2; assay: Cellular TMPRSS2 inhibition assay in Calu3 cells; assay type: cell-based; set-up: endogenous in cells; host or cells: Calu3 (Calu-3) cells
Description: as §1

[8] = cynomolgus
[9] = rats
in vivo [10] = settings: both, Sprague-Dawley, rat, iv; remark: listed apart in the source
in vivo [11] = settings: rat

T1 sequence (O15393 whole entry): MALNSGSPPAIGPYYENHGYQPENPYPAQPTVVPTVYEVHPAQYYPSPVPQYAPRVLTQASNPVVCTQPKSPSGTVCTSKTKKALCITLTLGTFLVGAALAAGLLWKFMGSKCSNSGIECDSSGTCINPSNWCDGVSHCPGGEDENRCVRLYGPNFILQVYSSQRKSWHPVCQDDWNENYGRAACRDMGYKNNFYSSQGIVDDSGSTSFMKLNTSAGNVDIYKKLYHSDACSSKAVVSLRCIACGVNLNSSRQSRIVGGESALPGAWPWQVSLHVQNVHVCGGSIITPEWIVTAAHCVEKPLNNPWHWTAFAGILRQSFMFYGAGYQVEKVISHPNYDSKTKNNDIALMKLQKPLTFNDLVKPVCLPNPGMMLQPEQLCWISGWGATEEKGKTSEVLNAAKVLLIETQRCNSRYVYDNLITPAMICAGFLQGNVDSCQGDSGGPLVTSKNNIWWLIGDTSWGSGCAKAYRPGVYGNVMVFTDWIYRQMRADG

CC[C@H](C)[C@@H]1NC(=O)[C@@H]2CSSC[C@H](NC(=O)[C@H](CCCNC(=N)N)NC(=O)[C@@H]3CSSC[C@H](NC1=O)C(=O)N[C@@H]([C@@H](C)O)C(=O)N[C@@H](CCCNC(=N)N)C(=O)NCC(=O)N[C@@H](Cc1ccccc1)C(=O)N3)C(=O)N[C@@H](CC(C)C)C(=O)N[C@H]1CSSC[C@H](NC(=O)[C@H](C(C)C)NC(=O)CNC(=O)[C@H](CCCNC(=N)N)NC(=O)[C@H](CCCNC(=N)N)NC1=O)C(=O)N[C@@H](CCCNC(=N)N)C(=O)N2 [Peptide 1] (cyclo(GFCRCLCRRGVCRCICTR); disulfide 3-16, 5-14, 7-12)
AUC (in vivo [1]; 5 mg/kg): 15000 ng·h/mL
AUC(0-inf) (in vivo [1]; 5 mg/kg): 15900 ng·h/mL
Cmax (in vivo [1]; 5 mg/kg): 7470 ng/mL
MRT (in vivo [1]; 5 mg/kg): 4.37 h
Vd (in vivo [1]; 5 mg/kg): 1.46 L/kg
clearance (in vivo [1]; 5 mg/kg): 5.57 mL/min/kg
AUC (in vivo [1]; 5 mg/kg/day): 12500 ng·h/mL
AUC(0-inf) (in vivo [1]; 5 mg/kg/day): 12700 ng·h/mL
Cmax (in vivo [1]; 5 mg/kg/day): 10100 ng/mL
MRT (in vivo [1]; 5 mg/kg/day): 2.92 h
Vd (in vivo [1]; 5 mg/kg/day): 1.17 L/kg
clearance (in vivo [1]; 5 mg/kg/day): 6.68 mL/min/kg
AUC (in vivo [1]; 10 mg/kg): 41700 ng·h/mL
AUC(0-inf) (in vivo [1]; 10 mg/kg): 42100 ng·h/mL
Cmax (in vivo [1]; 10 mg/kg): 27500 ng/mL
MRT (in vivo [1]; 10 mg/kg): 2.88 h
Vd (in vivo [1]; 10 mg/kg): 0.691 L/kg
clearance (in vivo [1]; 10 mg/kg): 4 mL/min/kg
AUC (in vivo [1]; 10 mg/kg/day): 34100 ng·h/mL
AUC(0-inf) (in vivo [1]; 10 mg/kg/day): 34700 ng·h/mL
Cmax (in vivo [1]; 10 mg/kg/day): 21800 ng/mL
MRT (in vivo [1]; 10 mg/kg/day): 3.45 h
Vd (in vivo [1]; 10 mg/kg/day): 1.01 L/kg
clearance (in vivo [1]; 10 mg/kg/day): 4.88 mL/min/kg
AUC (in vivo [1]; 20 mg/kg): 127000 ng·h/mL
AUC(0-inf) (in vivo [1]; 20 mg/kg): 127000 ng·h/mL
Cmax (in vivo [1]; 20 mg/kg): 35400 ng/mL
MRT (in vivo [1]; 20 mg/kg): 4.81 h
Vd (in vivo [1]; 20 mg/kg): 0.758 L/kg
clearance (in vivo [1]; 20 mg/kg): 2.62 mL/min/kg
AUC(0-inf) ([2]; 5 mg/kg): 3870 ng·h/mL
AUC(0-inf) ([2]; 25 mg/kg): 9000 ng·h/mL
pIC50 (TMPRSS2 [3]): 5.42 to 5.51
HED equivalent to NOAEL in cynomolgus monkeys ([4]; 70 kg individual): 15.9 mg/kg
HED equivalent to NOAEL in rats ([4]; 70 kg individual): 3.1 mg/kg
predicted human Vss ([4]; adult 70 kg, simple allometry): 28.0 L
MTD at 7 days (in vivo [5]): 15 mg/kg
NOAEL at 7 days (in vivo [5]; 15 mg/kg): 15 mg/kg/day
NOAEL at 10 days (in vivo [6]): 15 mg/kg/day
pIC50 (TMPRSS2 [7]): 5.42 to 5.51
λz ([8]; 0.3 mg/kg i.v., Day 1, mean): 0.523 h⁻¹
λz ([8]; 1 mg/kg i.v., Day 1, mean): 0.251 h⁻¹
λz ([8]; 3 mg/kg i.v., Day 1, mean): 0.078 h⁻¹
accumulation, mean AUCτ Day 10 vs mean AUC0-∞ Day 1 ([8]; 5 mg/kg): approximately 1.4 fold
λz ([8]; 5 mg/kg i.v., Day 1, mean): 0.323 h⁻¹
λz ([8]; 5 mg/kg/day i.v., Day 10, mean): 0.157 h⁻¹
accumulation, mean AUCτ Day 10 vs mean AUC0-∞ Day 1 ([8]; 10 mg/kg): ~1.5 fold
λz ([8]; 10 mg/kg i.v., Day 1, mean): 0.192 h⁻¹
λz ([8]; 10 mg/kg/day i.v., Day 10, mean): 0.120 h⁻¹
λz ([8]; 15 mg/kg i.v., Day 1, mean): 0.149 h⁻¹
λz ([8]; 15 mg/kg/day i.v., Day 4, mean): 0.072 h⁻¹
λz ([8]; 15 mg/kg/day i.v., Day 7, mean): 0.071 h⁻¹
λz ([8]; 15 mg/kg/day i.v., Day 10, mean): 0.078 h⁻¹
time plasma concentrations detectable post end of infusion ([8]; single dose of 0.3 or 1 mg/kg): up to 12 h
AUCτ on Day 7 lower than AUC0-∞ on Day 1 ([9]; 5 mg/kg group): 22%
λz ([9]; 5 mg/kg i.v., Day 1): 0.056 h⁻¹
λz ([9]; 5 mg/kg/day i.v., Day 7): 0.104 h⁻¹
AUCτ on Day 7 lower than AUC0-∞ on Day 1 ([9]; 10 mg/kg group): 19%
λz ([9]; 10 mg/kg i.v., Day 1): 0.148 h⁻¹
λz ([9]; 10 mg/kg/day i.v., Day 7): 0.133 h⁻¹
λz ([9]; 20 mg/kg i.v., Day 1): 0.221 h⁻¹
plasma levels during recovery period ([9]; Day 25, all but one rat): undetectable
mortality (cynomolgus monkeys, 10-day repeat dose, any dose level): no mortality or unscheduled euthanasia occurred
urinalysis, ophthalmologic assessments, electrocardiogram (cynomolgus monkeys, any dose level, data not shown): no treatment-related changes
food consumption (cynomolgus, females at 10 mg/kg/day and both sexes at 15 mg/kg/day, non-adverse): Treatment-related decrease in food consumption
microscopic findings, lung (cynomolgus, males ≥10 mg/kg/day and females ≥5 mg/kg/day, Day 11, resolved by end of recovery): minimal to mild intravascular thrombosis (thromboembolism)
tolerability (male and female cynomolgus monkeys, doses up to 15 mg/kg): well tolerated
NOAEL at 7 days (in vivo [10]): 10 mg/kg/day
MTD (in vivo [11]): 20 mg/kg
